#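 Dose response: 5 concentrations. Exposure: 48 h. Format: 96-well plates. Endpoint: linear interpolation; highest concentration if not reached. TGI: total growth inhibition.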
# Legend:
# Assay in all cases: inhibition of tumour cell growth, NCI panel, 48 h
# T-47D breast = test system: T-47D breast
# COLO 205 colon = test system: COLO 205 colon
# OVCAR-3 ovarian = test system: OVCAR-3 ovarian
# RPMI-8226 leukemia = test system: RPMI-8226 leukemia
# SF-268 CNS = test system: SF-268 CNS
# OVCAR-4 ovarian = test system: OVCAR-4 ovarian
# SNB-75 CNS = test system: SNB-75 CNS
# NCI-H226 lung = test system: NCI-H226 lung
# SF-295 CNS = test system: SF-295 CNS
# K-562 leukemia = test system: K-562 leukemia
# SNB-19 CNS = test system: SNB-19 CNS
# HL-60(TB) leukemia = test system: HL-60(TB) leukemia
# SF-539 CNS = test system: SF-539 CNS
# NCI-H522 lung = test system: NCI-H522 lung
# RXF 393 renal = test system: RXF 393 renal
# HCC-2998 colon = test system: HCC-2998 colon
# NCI-H460 lung = test system: NCI-H460 lung
# MDA-MB-231 breast = test system: MDA-MB-231 breast
# BT-549 breast = test system: BT-549 breast
# MDA-MB-435 = test system: MDA-MB-435
# DU-145 prostate = test system: DU-145 prostate
# HT29 colon = test system: HT29 colon
# NCI-H23 lung = test system: NCI-H23 lung
# A549 NSCLC = test system: A549 NSCLC
# SR leukemia = test system: SR leukemia
# SK-MEL-5 melanoma = test system: SK-MEL-5 melanoma
# SK-MEL-2 melanoma = test system: SK-MEL-2 melanoma
# 786-0 renal = test system: 786-0 renal
# MDA-N = test system: MDA-N
# HOP-92 NSCLC = test system: HOP-92 NSCLC
# HCT-15 colon = test system: HCT-15 colon
# MALME-3M melanoma = test system: MALME-3M melanoma
# CAKI-1 renal = test system: CAKI-1 renal
# A498 renal = test system: A498 renal
# ACHN renal = test system: ACHN renal
# EKVX NSCLC = test system: EKVX NSCLC
# HOP-62 NSCLC = test system: HOP-62 NSCLC
# PC-3 prostate = test system: PC-3 prostate
# HS 578T breast = test system: HS 578T breast
# TK-10 renal = test system: TK-10 renal
# SK-OV-3 ovarian = test system: SK-OV-3 ovarian
# MOLT-4 leukemia = test system: MOLT-4 leukemia
# NCI/ADR-RES ovarian = test system: NCI/ADR-RES ovarian
# OVCAR-5 ovarian = test system: OVCAR-5 ovarian
# M14 melanoma = test system: M14 melanoma
# HCT-116 colon = test system: HCT-116 colon
# KM12 colon = test system: KM12 colon
# SN12C renal = test system: SN12C renal
# IGROV1 ovarian = test system: IGROV1 ovarian
# UACC-62 melanoma = test system: UACC-62 melanoma
# MCF7 breast = test system: MCF7 breast
# U251 CNS = test system: U251 CNS
# SK-MEL-28 melanoma = test system: SK-MEL-28 melanoma
# UO-31 renal = test system: UO-31 renal
# OVCAR-8 ovarian = test system: OVCAR-8 ovarian
# CCRF-CEM leukemia = test system: CCRF-CEM leukemia
# KM20L2 colon = test system: KM20L2 colon
# SNB-78 CNS = test system: SNB-78 CNS
# UACC-257 melanoma = test system: UACC-257 melanoma
# LXFL 529 NSCLC = test system: LXFL 529 NSCLC
# M19-MEL melanoma = test system: M19-MEL melanoma
structure (smiles),measurement,setting,value
COC(=O)c1c(OC(C)=O)ccc2c1c1cc3ccccc3c(OC(C)=O)c1n2C,TGI,T-47D breast,39.8 µM
same,TGI,COLO 205 colon,69.8 µM
same,TGI,OVCAR-3 ovarian,62 µM
same,TGI,RPMI-8226 leukemia,> 100 µM
same,TGI,SF-268 CNS,> 100 µM
same,TGI,OVCAR-4 ovarian,> 100 µM
same,TGI,SNB-75 CNS,36 µM
same,TGI,NCI-H226 lung,> 100 µM
same,TGI,SF-295 CNS,> 100 µM
same,TGI,K-562 leukemia,> 100 µM
same,TGI,SNB-19 CNS,> 100 µM
same,TGI,HL-60(TB) leukemia,> 100 µM
same,TGI,SF-539 CNS,91.1 µM
same,TGI,NCI-H522 lung,42.9 µM
same,TGI,RXF 393 renal,> 100 µM
same,TGI,HCC-2998 colon,91.7 µM
same,TGI,NCI-H460 lung,> 100 µM
same,TGI,MDA-MB-231 breast,> 100 µM
same,TGI,BT-549 breast,81.1 µM
same,TGI,MDA-MB-435,> 100 µM
same,TGI,DU-145 prostate,44.6 µM
same,TGI,HT29 colon,69.1 µM
same,TGI,NCI-H23 lung,> 100 µM
same,TGI,A549 NSCLC,> 100 µM
same,TGI,SR leukemia,> 100 µM
same,TGI,SK-MEL-5 melanoma,31.2 µM
same,TGI,SK-MEL-2 melanoma,> 100 µM
same,TGI,786-0 renal,43.2 µM
same,TGI,MDA-N,> 100 µM
same,TGI,HOP-92 NSCLC,37 µM
same,TGI,HCT-15 colon,> 100 µM
same,TGI,MALME-3M melanoma,56.2 µM
same,TGI,CAKI-1 renal,70.3 µM
same,TGI,A498 renal,46 µM
same,TGI,ACHN renal,89.4 µM
same,TGI,EKVX NSCLC,> 100 µM
same,TGI,HOP-62 NSCLC,> 100 µM
same,TGI,PC-3 prostate,> 100 µM
same,TGI,HS 578T breast,36.7 µM
same,TGI,TK-10 renal,92.5 µM
same,TGI,SK-OV-3 ovarian,55.2 µM
same,TGI,MOLT-4 leukemia,> 100 µM
same,TGI,NCI/ADR-RES ovarian,> 100 µM
same,TGI,OVCAR-5 ovarian,> 100 µM
same,TGI,M14 melanoma,> 100 µM
same,TGI,HCT-116 colon,74 µM
same,TGI,KM12 colon,> 100 µM
same,TGI,SN12C renal,> 100 µM
same,TGI,IGROV1 ovarian,12.8 µM
same,TGI,UACC-62 melanoma,> 100 µM
same,TGI,MCF7 breast,> 100 µM
same,TGI,U251 CNS,> 100 µM
same,TGI,SK-MEL-28 melanoma,> 100 µM
same,TGI,UO-31 renal,> 100 µM
same,TGI,OVCAR-8 ovarian,> 100 µM
same,TGI,CCRF-CEM leukemia,> 100 µM
COC(=O)C(Cc1ccccc1)N=Cc1c(O)c(O)c(C(C)C)c2cc(C)c(-c3c(C)cc4c(C(C)C)c(O)c(O)c(C=NC(Cc5ccccc5)C(=O)OC)c4c3O)c(O)c12 (stereo not drawn),TGI,KM20L2 colon,55.3 µM
same,TGI,SNB-78 CNS,29.2 µM
same,TGI,COLO 205 colon,92.9 µM
same,TGI,OVCAR-3 ovarian,52.1 µM
same,TGI,RPMI-8226 leukemia,92.3 µM
same,TGI,SF-268 CNS,> 100 µM
same,TGI,OVCAR-4 ovarian,64.5 µM
same,TGI,SNB-75 CNS,> 100 µM
same,TGI,UACC-257 melanoma,63 µM
same,TGI,SF-295 CNS,35.6 µM
same,TGI,K-562 leukemia,> 100 µM
same,TGI,SNB-19 CNS,> 100 µM
same,TGI,HL-60(TB) leukemia,59 µM
same,TGI,SF-539 CNS,43.6 µM
same,TGI,NCI-H522 lung,54.7 µM
same,TGI,RXF 393 renal,35 µM
same,TGI,NCI-H460 lung,51.4 µM
same,TGI,HT29 colon,32.5 µM
same,TGI,NCI-H23 lung,74.6 µM
same,TGI,LXFL 529 NSCLC,38.5 µM
same,TGI,SR leukemia,10.1 µM
same,TGI,SK-MEL-2 melanoma,44 µM
same,TGI,HOP-92 NSCLC,77 µM
same,TGI,MALME-3M melanoma,> 100 µM
same,TGI,ACHN renal,74.3 µM
same,TGI,HOP-62 NSCLC,> 100 µM
same,TGI,SK-OV-3 ovarian,81 µM
same,TGI,MOLT-4 leukemia,11.6 µM
same,TGI,OVCAR-5 ovarian,49.3 µM
same,TGI,M19-MEL melanoma,> 100 µM
same,TGI,KM12 colon,39.7 µM
same,TGI,IGROV1 ovarian,> 100 µM
same,TGI,UACC-62 melanoma,55.9 µM
same,TGI,U251 CNS,55.2 µM
same,TGI,SK-MEL-28 melanoma,> 100 µM
same,TGI,UO-31 renal,80.7 µM
same,TGI,CCRF-CEM leukemia,38.5 µM

# Source: PubChem BioAssay (NCI)
